Data on two molecules can be found in ChEMBL document CHEMBL1124481, “2-Haloaporphines as potent dopamine agonists” (J Med Chem, 1989).

Assay [1] deals with D(2) dopamine receptor (Sus scrofa). Nature of the assay: Compound was evaluated for the ability to displace [3H]-spiperone at Dopamine receptor D2 in porcine anterior pituitary gland as low affinity state.
For assay [2] the test system is unchanged. Nature of the assay: Proportion of high affinity state of Dopamine receptor D2 measured by compound ability to displace [3H]spiperone from porcine anterior pituitary membranes.

Turning to `CN1CCc2cc(N)cc3c2[C@H]1Cc1ccc(O)c(O)c1-3`, the D-2 in assay [1] was 38%; in assay [2] it was 62%.

Turning to `CN1CCc2cc(Br)cc3c2[C@H]1Cc1ccc(O)c(O)c1-3`, the D-2 in assay [1] amounted to 49%; in assay [2] it was 62%.
